For assay [1], the target named is polyhemoglobin-tyrosinase complex (bovine hemoglobin crosslinked with mushroom tyrosinase) (Bos taurus, UniProt P01966+P02070). Conditions: crosslink time 24 h; versus pure bovine hemoglobin in free form.
Assay [2] concerns tyrosinase from mushroom, encapsulated (1020 U/3 ml). In words: Apparent Vmax and apparent Km of encapsulated tyrosinase. The class given is biochemical. As to conditions: substrate tyrosine. The source says: (§1) L-tyrosine (98% TLC), hemoglobin from bovine (lyophilized powder), hemoglobin assay kit, tyrosinase from mushroom (3400 U/mg manufacturer's stated activity) were purchased from Sigma-Aldrich (Oakville, Canada). Collodion was obtained from Fisher Scientific (Nepean, Canada). Glutaraldehyde (25%) was obtained from Polyscienes (Warrington, Pa.). Purified bovine hemoglobin was purchased from Biopure Corporation (Boston, Mass.). All other reagents were of analytical grade.
One gram hemoglobin and 200 mg […] was dissolved in 10 ml double distilled deionized water. Stir with a metal rod until everything is dissolved. Gravity filter the solution through a Waterman #42 filter into a Erlenmeyer flask. Take 2.5 ml of this 10 g/dl hemoglobin solution and was encapsulated within spherical, ultrathin, cellulose nitrate membrane. Without tyrosinase loaded microcapsules were administrated orally to control group. For tyrosinase loaded microencapsules, […] of 3400 U/mg tyrosinase was dissolved in 2.5 ml 10% hemoglobin solution, then followed the methods described above to immobilize tyrosinase in collodion membrane microcapsules. Microcapsules prepared as a 50% suspension for later feeding. […]
Next, the apparent Vmax and apparent Km value for encapsulated tyrosinase (1020 U/3 ml) were studied. The leakage of encapsulated tyrosinase is also measured.

In assay [3] the test system is tyrosinase from mushroom, free (1020 U/3 ml). The experiment in a line: Vmax and Km of free tyrosinase. The format is biochemical. As to conditions: substrate tyrosine.
Description: as §1
This is to characterize the enzyme kinetics of the preparation and comparing this encapsulated tyrosinse preparation to free tyrosinase.

Sequence of polyhemoglobin-tyrosinase complex (bovine hemoglobin crosslinked with mushroom tyrosinase) (P01966 whole entry): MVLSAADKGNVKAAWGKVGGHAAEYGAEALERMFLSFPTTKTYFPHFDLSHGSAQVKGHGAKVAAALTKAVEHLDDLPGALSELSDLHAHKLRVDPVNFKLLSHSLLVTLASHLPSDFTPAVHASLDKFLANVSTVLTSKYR
Sequence of polyhemoglobin-tyrosinase complex (bovine hemoglobin crosslinked with mushroom tyrosinase) (P02070 whole entry): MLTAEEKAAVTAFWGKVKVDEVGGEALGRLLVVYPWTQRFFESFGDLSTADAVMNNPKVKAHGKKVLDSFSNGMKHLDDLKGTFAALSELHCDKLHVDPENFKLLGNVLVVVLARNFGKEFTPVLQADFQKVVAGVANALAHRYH

For `O=O` [oxygen], in assay [1], the “P50 (oxygen dissociation), difference from free hemoglobin” value is recorded as “no significant difference”.

Take `N[C@@H](Cc1ccc(O)cc1)C(=O)O` [tyrosine, L-tyrosine]: in assay [2], the “Apparent Vmax” value came to 49.02 mg/dl · min and the Michaelis-Menten constant (Km) stood at 465 µM. In assay [3], the Vmax is given as 114.94 mg/dl · min.
